The source of these data is patent US20180008587A1, “THIOHYDANTOIN ANDROGEN RECEPTOR ANTAGONISTS FOR THE TREATMENT OF CANCER” (Jaressen Pharmaceutica NV, priority 2016, published 2018).

Common to all, as to assay type: cell-based
Assay [1] addresses T1, wild-type Androgen Receptor (AR-wt) (Homo sapiens, UniProt P10275).
T1 construct: expressed in transfected cells; host or cells: LNCaP (LNCaP AR (cs))
T1 sequence (P10275 1-920): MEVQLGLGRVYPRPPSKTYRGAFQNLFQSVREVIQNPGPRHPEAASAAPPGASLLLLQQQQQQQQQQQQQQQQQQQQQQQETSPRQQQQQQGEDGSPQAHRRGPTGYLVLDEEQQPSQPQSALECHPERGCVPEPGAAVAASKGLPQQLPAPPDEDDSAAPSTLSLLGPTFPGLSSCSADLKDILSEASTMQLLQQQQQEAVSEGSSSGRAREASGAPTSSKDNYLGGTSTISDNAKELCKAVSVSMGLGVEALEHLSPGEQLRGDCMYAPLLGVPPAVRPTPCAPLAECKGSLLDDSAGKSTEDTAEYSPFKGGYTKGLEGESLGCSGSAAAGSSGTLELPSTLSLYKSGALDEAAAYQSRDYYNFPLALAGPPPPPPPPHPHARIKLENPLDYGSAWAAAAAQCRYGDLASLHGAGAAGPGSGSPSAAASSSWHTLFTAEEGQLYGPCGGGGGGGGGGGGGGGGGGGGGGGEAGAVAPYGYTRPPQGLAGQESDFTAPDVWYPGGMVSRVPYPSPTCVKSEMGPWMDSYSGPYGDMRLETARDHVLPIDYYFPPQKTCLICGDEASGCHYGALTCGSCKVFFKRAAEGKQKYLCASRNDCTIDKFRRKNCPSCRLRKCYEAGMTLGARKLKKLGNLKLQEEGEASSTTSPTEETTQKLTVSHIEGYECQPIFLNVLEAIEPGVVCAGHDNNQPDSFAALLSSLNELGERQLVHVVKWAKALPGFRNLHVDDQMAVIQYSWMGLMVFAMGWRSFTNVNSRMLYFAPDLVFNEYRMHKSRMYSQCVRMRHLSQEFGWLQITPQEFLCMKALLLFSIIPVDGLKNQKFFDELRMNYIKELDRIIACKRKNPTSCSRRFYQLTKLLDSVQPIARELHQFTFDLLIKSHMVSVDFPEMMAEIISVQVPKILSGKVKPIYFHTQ
Briefly: LNCaP-AR-wt ANT reporter assay (ARE firefly luciferase, antagonist mode). The following applies: for IC50: antagonist mode, 400 pM R-1881 challenge, −Log10(IC50 [Molar]), read-out: LNCaP-AR-wt ANT pIC50 (converted); for Emax: read-out: LNCaP-AR-wt ANT MAX % Inh. In short, it runs like this:
(§1)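 Puromycin-selected LNCaP pools, grown in charcoal-stripped serum, were incubated 20-24 h at 37 °C with compounds, plus agonist challenge at 400 pM for wild-type and 600 pM for F876L.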

In assay [2] the target is T2, F876L mutant Androgen Receptor (AR-F876L) (Homo sapiens, UniProt P10275, F877L).
T2 construct: expressed in transfected cells; host or cells: LNCaP (LNCaP F876L)
T2 sequence (P10275 1-920 F877L): T1 sequence (P10275 1-920) with F877L
Description: LNCaP-AR-F876L AG reporter assay (ARE firefly luciferase, agonist mode). As to conditions: for Emax: read-out: LNCaP-AR-F876L AG MAX % Stim. The procedure, abridged:
(§2)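 LNCaP stable pooled lines expressing ARE-firefly luciferase, in charcoal-stripped serum medium, were exposed to compounds; antagonist mode used agonist at 400 pM (WT) or 600 pM (F876L).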

Assay [3] concerns the target T2, F876L mutant Androgen Receptor (AR-F876L). Briefly: LNCaP-AR-F876L ANT reporter assay (ARE firefly luciferase, antagonist mode). The following applies: for Emax: read-out: LNCaP-AR-F876L ANT MAX % Inh; for IC50: read-out: LNCaP-AR-F876L ANT pIC50 (converted). In short, it runs like this:
as §1

For assay [4], the target named is T1, wild-type Androgen Receptor (AR-wt). Briefly: LNCaP-AR-wt AG reporter assay (ARE firefly luciferase, agonist mode). The following applies: for Emax: read-out: LNCaP-AR-wt AG MAX % Stim. The procedure, abridged: as §2
Setting [5] is: maximum % inhibition of R1881 control response over tested concentration range.
Where [6] appears, read: agonist mode, −Log10(EC50 [Molar]), read-out: LNCaP-AR-F876L AG pEC50 (converted).
The mark [7] stands for this setting: maximum % stimulation (agonist response) over tested concentration range.
The mark [8] stands for this setting: agonist mode, −Log10(EC50 [Molar]), read-out: LNCaP-AR-wt AG pEC50 (converted).

Substitutions are numbered along the chain they refer to. Read-outs that look alike come from different tables or passages of the source.

With `Cc1cc(N2C(=O)C3(CCC3)N(c3ccc(C(=O)NCc4cccs4)c(F)c3)C2=S)cnc1C#N` [Cpd 33, 4-[6-(6-cyano-5-methyl-3-pyridyl)-5-oxo-7-thioxo-6,8-diazaspiro[3.4]octan-8-yl]-2-fluoro-N-(2-thienylmethyl)benzamide], the IC50 in assay [1] is 1230 nM; in assay [3], 490 nM. Also, the Emax in assay [1] (setting [5]) came to 99.6%; in assay [2] (setting [7]), 0.3%; in assay [3] (setting [5]), 100%; in assay [4] (setting [7]), 0.3%. In addition, the EC50 in assay [2] (setting [6]) and in assay [4] (setting [8]) was greater than 15100 nM in each case.

Turning to `N#Cc1ncc(N2C(=O)C3(CCC3)N(c3cccc4ccccc34)C2=S)cc1C(F)(F)F` [Cpd 34, 5-[8-(1-naphthyl)-5-oxo-7-thioxo-6,8-diazaspiro[3.4]octan-6-yl]-3-(trifluoromethyl)pyridine-2-carbonitrile], the IC50 is 562 nM in assay [1] and 617 nM in assay [3]. The Emax was 99.7% in assay [1], 0.2% in assay [2], 99.4% in assay [3] and -0.1% in assay [4]. In addition, the EC50 in assay [2] and in assay [4] was greater than 15100 nM throughout.

Consider `N#Cc1ncc(N2C(=O)C3(CCC3)N(c3ccc(C(=O)NCc4ccccc4)c(F)c3)C2=S)cc1C(F)(F)F` [Cpd 36, N-benzyl-4-[6-[6-cyano-5-(trifluoromethyl)-3-pyridyl]-5-oxo-7-thioxo-6,8-diazaspiro[3.4]octan-8-yl]-2-fluoro-benzamide], for which the IC50 in assay [1] was 1480 nM; in assay [3], 851 nM. Besides, the Emax came to 96.1% in assay [1], 0.3% in assay [2], 91.3% in assay [3] and 0.9% in assay [4]. Also, the EC50 in assay [2] and in assay [4] was greater than 15100 nM in each case.

On to `N#Cc1ncc(N2C(=O)C3(CCC3)N(c3ccc(C(=O)NCCCN4CCCC4=O)c(F)c3)C2=S)cc1C(F)(F)F` [Cpd 37, 4-[6-[6-cyano-5-(trifluoromethyl)-3-pyridyl]-5-oxo-7-thioxo-6,8-diazaspiro[3.4]octan-8-yl]-2-fluoro-N-[3-(2-oxopyrrolidin-1-yl)propyl]benzamide], for which the IC50 in assay [1] was 1200 nM; in assay [3], 398 nM. Further, the Emax in assay [1] (setting [5]) is 99.3%; in assay [2] (setting [7]), 0.3%; in assay [3] (setting [5]), 96.5%; in assay [4] (setting [7]) it was 0.3%. The EC50 in assay [2] (setting [6]) and in assay [4] (setting [8]) was greater than 15100 nM throughout.

Consider `N#Cc1ncc(N2C(=O)C3(CCC3)N(c3ccc(OC(F)(F)F)cc3)C2=S)cc1C(F)(F)F` [Cpd 38, 5-[5-oxo-7-thioxo-8-[4-(trifluoromethoxy)phenyl]-6,8-diazaspiro[3.4]octan-6-yl]-3-(trifluoromethyl)pyridine-2-carbonitrile], for which the IC50 in assay [1] is 398 nM; in assay [3], 229 nM. Besides, the Emax in assay [1] (setting [5]) is 100%; in assay [2] it was 0.3%; in assay [3] (setting [5]), 99%; in assay [4] it was 1.2%. The EC50 in assay [2] (setting [6]) and in assay [4] (setting [8]) was greater than 15100 nM each time.

As to `CNC(=O)c1ccc(N2C(=S)N(c3cnc(C#N)c(C(F)F)c3)C(=O)C23CCC3)cc1F` [Cpd 39, 4-[6-[6-cyano-5-(difluoromethyl)-3-pyridyl]-5-oxo-7-thioxo-6,8-diazaspiro[3.4]octan-8-yl]-2-fluoro-N-methyl-benzamide], the values for the IC50 in assay [1] and in assay [3] were 1820 nM and 1550 nM, respectively. Besides, the Emax in assay [1] (setting [5]) was determined as 97.2%; in assay [2] (setting [7]), 0.3%; in assay [3] (setting [5]), 94.4%; in assay [4] (setting [7]), 0.2%. For the same compound, the EC50 in assay [2] (setting [6]) and in assay [4] (setting [8]) was greater than 15100 nM throughout.

For `CCOC(=O)CNC(=O)c1ccc(N2C(=S)N(c3cnc(C#N)c(C(F)(F)F)c3)C(=O)C23CCC3)cc1F` [Cpd 41, ethyl 2-[[4-[6-[6-cyano-5-(trifluoromethyl)-3-pyridyl]-5-oxo-7-thioxo-6,8-diazaspiro[3.4]octan-8-yl]-2-fluoro-benzoyl]amino]acetate], the IC50 in assay [1] is 282 nM; in assay [3], 186 nM. Also, the Emax in assay [1] (setting [5]) is 102%; in assay [2] (setting [7]), 0.3%; in assay [3] (setting [5]), 102%; in assay [4] (setting [7]) it was -0.2%. The EC50 in assay [2] (setting [6]) and in assay [4] (setting [8]) was greater than 15100 nM in each case.

As for `N#Cc1ncc(N2C(=O)C3(CCC3)N(c3ccc(C(=O)NCc4ccccn4)c(F)c3)C2=S)cc1C(F)(F)F` [Cpd 44, 4-[6-[6-cyano-5-(trifluoromethyl)-3-pyridyl]-5-oxo-7-thioxo-6,8-diazaspiro[3.4]octan-8-yl]-2-fluoro-N-(2-pyridylmethyl)benzamide], the IC50 is 195 nM in assay [1] and 178 nM in assay [3]. The Emax in assay [1] was 103%; in assay [2] it was 0%; in assay [3], 101%; in assay [4], -0.2%. Besides, the EC50 in assay [2] and in assay [4] was greater than 15100 nM in each case.

As for `Cc1cc(N2C(=O)C3(CCC3)N(c3ccc(C(=O)Nc4ccnn4C)c(F)c3)C2=S)cnc1C#N` [Cpd 45, 4-[6-(6-cyano-5-methyl-3-pyridyl)-5-oxo-7-thioxo-6,8-diazaspiro[3.4]octan-8-yl]-2-fluoro-N-(2-methylpyrazol-3-yl)benzamide], the IC50 is 1020 nM in assay [1] and 437 nM in assay [3]. Besides, the Emax in assay [1] (setting [5]) stood at 101%; in assay [2] (setting [7]), 0.1%; in assay [3] (setting [5]), 100%; in assay [4] (setting [7]), 0.2%. The EC50 in assay [2] (setting [6]) and in assay [4] (setting [8]) was greater than 15100 nM each time.

Consider `COCCNC(=O)c1ccc(N2C(=S)N(c3cnc(C#N)c(C(F)(F)F)c3)C(=O)C23CCC3)cc1F` [Cpd 46, 4-[6-[6-cyano-5-(trifluoromethyl)-3-pyridyl]-5-oxo-7-thioxo-6,8-diazaspiro[3.4]octan-8-yl]-2-fluoro-N-(2-methoxyethyl)benzamide], for which the IC50 in assay [1] was 891 nM; in assay [3], 631 nM. Moreover, the Emax in assay [1] was 99.9%; in assay [2], 0.2%; in assay [3] it was 98.3%; in assay [4], -0.1%. In addition, the EC50 in assay [2] and in assay [4] was greater than 15100 nM each time.
